From patent publication US20040132666A1, “Administration of free radical scavengers to prevent or treat ischemia-reperfusion injuries” (Oregon Health & Science University, priority 2002, published 2004)

Experiments:
[1] = tested on: brain glutathione levels; conditions: 10 g/m^2 intraperitoneally twice daily for 3 days; cited from earlier work
[2] = tested on: middle cerebral artery occlusion; experiment: Temporary (60 min) middle cerebral artery occlusion and 24 h reperfusion, total infarction volume by TTC staining (Example 2); type: in vivo, rat; conditions: for infarction volume: 60 min occlusion, 24 h reperfusion, mean ± SD
[3] = tested on: middle cerebral artery occlusion (MCAO); experiment: 60 minute transient MCAO in rats, infarcted area on TTC stained brain slices (Example 1); type: in vivo, rat
Description: Twenty female Long Evans rats underwent 60 minute transient MCAO. The rats were anesthetized, intubated and mechanically ventilated using 2% Isoflurane, available from Abbott Laboratories, North Chicago, Ill., and oxygen mixture. The left common carotid artery (CCA) and the bifurcation were exposed via midline incision. The branches of the left external carotid artery (ECA) were coagulated, and the ECA stump was mobilized inferiorly, the left pterygopalatine artery was ligated. A blunt tipped 3 cm long segment of a 3-0 monofilament nylon suture, available from Dermalone, United States Surgical, Norwalk, Conn., was introduced into the left internal carotid artery via the left ECA stump, and advanced 2.0-2.2 cm distance from the bifurcation. Then the proximal CCA was ligated temporarily. After the defined occlusion time the animal was re-anesthetized using a mask. The ligation of the CCA was released, and the suture was pulled back and removed allowing reperfusion of the occluded segment. […] The animals were sacrificed 24 h later with intracardiac injection of Pentobarbital. […] The pictures were analyzed using the Scion Image for Windows software (based on NIH Image Software for Macintosh). The non-stained area was outlined, and the area was calculated, as a percentage of the stroked hemisphere. Data were analyzed and graphed using Microsoft Excel Software. […]

[4] = rat, in vivo, iv, 1000 mg/kg
[5] = Serum NAC concentration in rats 5 min post infusion
[6] = tested on: ischemia-reperfusion injuries; experiment: Single high dose versus multiple low doses of NAC against ischemia-reperfusion injuries; conditions: single high dose (400-1000 mg/kg) versus multiple low doses

Row | Structure (SMILES) | reduction of brain glutathione levels [1] | infarction volume in comparison to other groups ([2]; 3 days of BSO pretreatment) | infarction versus control group ([3]; 400 mg/kg i.v. 30 min before occlusion, slices 10 and 12 mm from frontal pole, significant only in last slice) | infarcted area smaller than in control group (mean) ([3]; 400 mg/kg i.v. over 15 min starting 30 min before occlusion, slices 6 and 8 mm from frontal pole, 24 h after 60 min MCAO) [%] | transient decrease of mean arterial blood pressure (Long-Evans, rat, in vivo, iv) [%] | morbidity or mortality (stroke animals, intravenous 400 mg NAC in 5 min infusion) | toxicity [4] | serum NAC concentration ([5]; 400 mg/kg) | serum NAC concentration ([5]; 1000 mg/kg) [mM] | serum NAC concentration ([5]; about 140 mg/kg) [mM] | hematocrit after infusion (from 50%) ([2]; 2500 μl volume intravenous injection in 5 minutes, same for saline) [%] | infarction volume ([2]; Series A: 400 mg/kg i.v. -60 min to MCAO) [mm3] | average reduction of total calculated infarction volume versus saline treated group ([2]; Series A: NAC 60 minutes before occlusion) [%] | infarction volume ([2]; Series B: 400 mg/kg i.v. -30 min to MCAO) [mm3] | average protection versus saline ([2]; Series B: NAC 30 minutes before occlusion) [%] | infarction volume ([2]; Series C: 400 mg/kg i.v. at reperfusion (2 min after)) [mm3] | total volume of infarction versus saline treated group ([2]; Series C: NAC after reperfusion, p=0.84) | protection in comparison to saline controls ([2]; Series D: BSO treated, glutathione depleted animals, p=0.72) | effectiveness in preventing or treating ischemia-reperfusion injuries [6]
1 | CCCCS(=N)(=O)CCC(N)C(=O)O [BSO, L-buthionine-[S,R]-sulfoxamine] | at least 50% | did not result in higher infarction volume | – | – | – | – | – | – | – | – | – | – | – | – | – | – | – | – | –
2 | CC(=O)N[C@@H](CS)C(=O)O [NAC, N-acetylcysteine] | – | – | the infarction was smaller | 38 | 10 | did not cause significant morbidity or mortality | No toxicity was observed | about 1.5 mM | ~10 | 0.1 to 0.3 | 30 | 143.40 ± 72 | 43 | 176.60 ± 69 | 34 | 156.41 ± 27 | the difference was not significant | failed to provide significant protection | more effective
